Measurements published in PubChem BioAssay (NCI).
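Briefly, cells in 96-well plates were exposed to five compound concentrations for 48 h, and endpoints were estimated by linear interpolation. TGI denotes the concentration required for complete inhibition of growth.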

Tests used:
Experiment in all cases: NCI tumour cell line growth inhibition, 48 h
HOP-62 NSCLC = system: HOP-62 NSCLC
TK-10 renal = system: TK-10 renal
K-562 leukemia = system: K-562 leukemia
RPMI-8226 leukemia = system: RPMI-8226 leukemia
MALME-3M melanoma = system: MALME-3M melanoma
HOP-92 NSCLC = system: HOP-92 NSCLC
HS 578T breast = system: HS 578T breast
A498 renal = system: A498 renal
NCI-H23 lung = system: NCI-H23 lung
OVCAR-5 ovarian = system: OVCAR-5 ovarian
A549 NSCLC = system: A549 NSCLC
HCC-2998 colon = system: HCC-2998 colon
MDA-MB-231 breast = system: MDA-MB-231 breast
SW-620 colon = system: SW-620 colon
PC-3 prostate = system: PC-3 prostate
M14 melanoma = system: M14 melanoma
SNB-19 CNS = system: SNB-19 CNS
SN12C renal = system: SN12C renal
BT-549 breast = system: BT-549 breast

Compound	TGI (HOP-62 NSCLC)	TGI (TK-10 renal)	TGI (K-562 leukemia)	TGI (RPMI-8226 leukemia)	TGI (MALME-3M melanoma)	TGI (HOP-92 NSCLC)	TGI (HS 578T breast)	TGI (A498 renal)	TGI (NCI-H23 lung)	TGI (OVCAR-5 ovarian)	TGI (A549 NSCLC)	TGI (HCC-2998 colon)	TGI (MDA-MB-231 breast)	TGI (SW-620 colon)	TGI (PC-3 prostate)	TGI (M14 melanoma)	TGI (SNB-19 CNS)	TGI (SN12C renal)	TGI (BT-549 breast)
COc1cccc(/C=C2\CCCCCC2=O)c1	> 100 µM	> 100 µM	> 100 µM	> 100 µM	> 100 µM	> 100 µM	> 100 µM	> 100 µM	> 100 µM	> 100 µM	> 100 µM	> 100 µM	> 100 µM	> 100 µM	> 100 µM	> 100 µM	> 100 µM	> 100 µM	> 100 µM
O=C(CCCl)NNC1=NCCN1	> 100 µM	> 100 µM	> 100 µM	> 100 µM	> 100 µM	> 100 µM	> 100 µM	> 100 µM	> 100 µM	> 100 µM	> 100 µM	> 100 µM	> 100 µM	> 100 µM	> 100 µM	> 100 µM	> 100 µM	> 100 µM	> 100 µM
CC(=O)OCC1OC(n2c(N)c(C#N)c(-c3ccc(C)cc3)c(C#N)c2=S)C(OC(C)=O)C(OC(C)=O)C1OC(C)=O (stereo not given)	47.2 µM	37.9 µM	> 100 µM	80 µM	33 µM	28.5 µM	38.7 µM	> 100 µM	51.9 µM	> 100 µM	29.5 µM	34 µM	> 100 µM	> 100 µM	> 100 µM	30 µM	34.8 µM	41 µM	> 100 µM
CN(C)c1nc(-c2ccccc2)c(C(=O)c2c[nH]c3ccccc23)s1	> 100 µM	> 76.3 µM	> 100 µM	32 µM	> 100 µM	> 33.2 µM	> 28.3 µM	> 100 µM	> 100 µM	> 100 µM	> 100 µM	> 70.6 µM	> 100 µM	> 100 µM	> 100 µM	> 100 µM	> 100 µM	> 100 µM	> 100 µM
O=C1C=C(NCCc2cc(Br)c(O)c(Br)c2)C(=O)c2ncccc21	3.59 µM	13.8 µM	10 µM	18.3 µM	2.49 µM	25.6 µM	8.77 µM	6.78 µM	1.66 µM	3.95 µM	4.79 µM	18.5 µM	20.3 µM	8.6 µM	27.1 µM	2.7 µM	8.77 µM	2.95 µM	5.07 µM
